Source: US11091497B2, “Pyrano[3,4-b]pyrazine kappa opioid receptor ligands for treating addiction, pruritus, pain, and inflammation” (The Rockefeller University, priority 2017, dated 2021)

Target: T1, human kappa opioid receptors (Homo sapiens, UniProt P41145)
T1 construct: expressed in transfected cells; host or cells: U2OS
Assay: [35S]GTPγS stimulation, membranes from U2OS cells
Format: biochemical
Settings: for Emax: read-out: GTPγS stimulation % efficacy

T1 sequence (P41145 whole entry): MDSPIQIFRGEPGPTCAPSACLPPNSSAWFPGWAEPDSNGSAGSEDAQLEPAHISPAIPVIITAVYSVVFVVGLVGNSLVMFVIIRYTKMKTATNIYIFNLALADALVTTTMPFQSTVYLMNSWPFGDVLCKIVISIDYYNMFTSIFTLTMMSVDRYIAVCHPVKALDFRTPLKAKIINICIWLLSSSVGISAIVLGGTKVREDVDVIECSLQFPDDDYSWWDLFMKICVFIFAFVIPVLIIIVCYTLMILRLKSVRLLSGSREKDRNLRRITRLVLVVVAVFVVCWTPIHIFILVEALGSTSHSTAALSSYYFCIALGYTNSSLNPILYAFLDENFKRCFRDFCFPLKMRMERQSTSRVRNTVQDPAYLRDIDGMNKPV

Compound	EC50 [nM]	Emax [%]
O=C(Cc1ccc(Cl)c(Cl)c1)N1CCN[C@@H]2COC[C@H](N3CCCC3)[C@H]21 (racemic) [Example 5A22, 1-[8-pyrrolidin-1-yl-2,3,4,4a,5,7,8,8a-octahydropyrano(3,4-b)pyrazin-1-yl]-2-(3,4-dichlorophenyl)ethanone]	63	96
CN1CCN(C(=O)Cc2ccc(Cl)c(Cl)c2)[C@H]2[C@H]1COC[C@@H]2N1CCCC1 (racemic) [Example 5A23, 1-[4-methyl-8-pyrrolidin-1-yl-3,4a,5,7,8,8a-hexahydro-2H- -pyrano(3,4-b)pyrazin-1-yl]-2-(3,4-dichlorophenyl)ethanone]	46	76
